From patent US8822517B2, “Arylosulfonamides for the treatment of CNS diseases” (Adamed SP. Z O.O., priority 2010, dated 2014) come the findings set out here.

Marks after values point to notes of the source that are not given here.

In experiment [1] the target is serotoninergic 5-HT2C receptor (Homo sapiens, UniProt P28335). Kind of experiment: Cellular functional assay, serotoninergic 5-HT2C receptor (agonism/antagonism). Format: cell-based. The following applies: agonist effect, percent of control specific agonist response; 1×10^−6M. How it is done:
The compounds were tested at the concentration of 1×10^−6M.
In the Tables ag refers to agonism, and antag to antagonism).

In another experiment the target is T1, histaminergic receptor (Cavia porcellus, UniProt P31389).
T1 construct: Terminal ileum was dissected and placed into a Krebs solution; from tissue; host or cells: guinea-pig terminal ileum segments (organ bath)
Put plainly: Guinea-pig ileum test, antagonism of histamine contraction. The settings on record: antagonistic activity towards histaminergic receptor, agonist histamine, read-out: H ant** (pKb) (converted). The procedure:
Ileum was prepared from male guinea-pigs with 300-350 g of body weight, fasted for 24 h before experiment with free access to drinking water. Terminal ileum was dissected and placed into a Krebs solution (NaCl 120 mM, KCl 5.6 mM, MgCl2 2.2 mM, CaCl2 2.4 mM, NaHCO3 19 mM, glucose 10 mM) and 2 cm-long fragments were cut. Each segment of the gut was placed in 30 ml chamber filled with the Krebs solution at 37 C, pH 7.4, with constant oxygenation (O2/CO2, 19:1), fixed by the lower end to a glass rod and by the upper end to the force-displacement transducer FDT 10-A (Biopac Systems, COMMAT, Ltd., Turkey). The preparation was allowed to stabilize in organ baths for 60 min under a resting tension of 0.5 g, washing every 15 min with fresh Krebs solution. All responses were recorded using software Biopac Systems Inc MP-35 Data Acquisition, Turkey.
In next step, stock solutions were diluted 10× in water.
The equilibration period a cumulative concentration-response curve was constructed in so each tissue for respective agonist—carbachol (3×10^−9−3×10^−6 M) or histamine (10^−8-10^−5 M) by the method of van Rossum (Ref. 24). Following the first agonist curve, tissues were incubated with one of the concentrations of tested compounds for 15 min and the next cumulative concentration curve to agonist was obtained. Only one concentration of the antagonist was tested in each piece of tissue. Experiments were repeated three to eight times.
After the equilibration period a cumulative concentration-response curve was constructed in each tissue for histamine (10^−8-10^−5 M) by the method of van Rossum. Following the first histamine curve, tissues were incubated with one of the concentrations of tested compounds for 15 min and the next cumulative concentration curve to histamine was obtained. Only one concentration of the antagonist was tested in each piece of tissue. Experiments were repeated three to seven times.
Concentration-response curves were analysed using GraphPad Prism 4.0 (GraphPad Software Inc., San Diego, Calif., USA). […]

The subject of experiment [2] is Wistar rats. Kind of experiment: Amphetamine-induced PPI deficits in rats.
From the text: (§1) Drug-naive male Wistar rats (Charles River, Sulzfeld, Germany) weighing 250-400 g were used in all experiments. Rats were housed two per standard plastic cage and kept in a room with constant environmental conditions (21-22′C, relative humidity 60%, a 12:12 light-dark cycle with lights on at 7:00 a.m.). Animals were supplied by the breeder two weeks before the onset of behavioral procedures. During this time, the subjects were weighed and handled several times. Tap water and standard lab chow (Labofeed H, WPIK, Kcynia, Poland) was available ad libitum.
(§2) An injection volume of 10 ml/kg (mice) or 2 ml/kg (rats) was used throughout and all compounds were administered intraperitoneally (i.p.), except d-amphetamine that was given subcutaneously (s.c.).
The PPI apparatus consisted of eight startle chambers (SR-LAB, San Diego Instruments, San Diego, Calif., USA). […] Startle responses, reflecting the motion of animals in the cylinder so following the acoustic stimulus, were detected by a piezoelectric transducer mounted below the frame. […]
This interval was randomized by the SR-LAB software. Startle responses were measured for 100 ms after the onset of the last trial stimulus. […]
Startle responses (in manufacturer's arbitrary units), and magnitudes of PPI (%) were analyzed with the aid of a one-way analysis of variance (ANOVA). […]
For experiment [3], the system named is Wistar rats. Put plainly: Apomorphine-induced stereotyped behaviour in rats.
From the text: as §1, §2
All tests were carried out in a sound-attenuated experimental room between 9:00 a.m. and 3:00 p.m. Within 24 h prior to testing, rats were habituated to glass observation so cages (25×25×40 cm, W×H×L) with wood chip bedding on the floor for 20 min. […] Rats were injected with apomorphine (0.6 mg/kg) and placed in the observation cages. […] Twenty minutes later, the time spent licking/biting and sniffing downward was recorded by a trained observer for 5 minutes (300 s). […]
The duration of stereotyped sniffing and licking/biting was analyzed with the aid of the Kruskal-Wallis analysis of variance (ANOVA). […]
The test system of experiment [4] is Wistar rats. Kind of experiment: Passive avoidance procedure in rats. The following applies: passive-avoidance (model of memory disturbance).
From the text: as §1
Potentially impairing effects of test substance on learning and memory function in rats were evaluated using a step-through passive avoidance (PA) test. […]
In the training session (acquisition), animals were placed in the lighted compartment and allowed to explore it freely for 10 s. The sliding door was then opened, and the step-through latency for a rat to enter the dark compartment was measured. […]
The test (expression) session was performed 24 h after the training session. […] A step-through latency for animals to enter the dark compartment was measured with a cut-off of 300 s.
Weights and step-trough latencies were analyzed with the aid of a one-way analysis of variance (ANOVA). […]
For experiment [5], the system named is Wistar rats. Kind of experiment: MK-801-induced stereotyped behaviour in rats. The settings on record: MK-801-induced stereotyped behaviour (glutamate-related psychosis model).
From the text: as §1, §2
All tests were carried out in a sound-attenuated experimental room between 9:00 a.m. and 3:00 p.m. Within 24 h prior to testing, rats were habituated to glass observation cages (25×25×40 cm, W×H×L) with wood chip bedding on the floor for 20 min. […] Views of other rats in the experiment were prohibited. Fifteen minutes later, the time spent circling/head waving was recorded by a trained observer for 5 min. […] Rats were pre-injected with a test drug 60 min. before the start of the observation period.
The duration of stereotyped circling was analyzed with the aid of the Kruskal-Wallis analysis of variance (ANOVA). […]
Experiment [6] relates to Wistar rats. Kind of experiment: Conflict drinking test (Vogel test) in rats. Format: in vivo. From the text:
Recording data started immediately after the first lick and every 20 licks rats were punished with an electric shock (0.5 mA, lasting 1 s). […] If a rat was drinking when an impulse was released, it received a shock.

For the next experiment, the system named is mice. Put plainly: MK-801-induced locomotor hyperactivity in mice.
For the next experiment, the system named is Swiss mice. Kind of experiment: Four-plate test in Swiss mice. Format: in vivo.
The subject of experiment [7] is Wistar rats. Put plainly: 2,5-Dimethoxy-4-iodoamphetamine (DOI)-induced head twitches in rats.
From the text: as §1, §2
All tests were carried out in a sound-attenuated experimental room between 9:00 a.m. and 3:00 p.m. as described above for spontaneous head twitches. […] Rats were pre-injected i.p. with a test drug 60 min. before the start of the test session. […] Five minutes later, head twitches were counted for 5 minutes. (300 s) by a trained observer.
Total numbers of head twitches (n/5 min.) were analyzed by means of the Kruskal-Wallis analysis of variance (ANOVA). The Mann-Whitney U test was used for individual post hoc comparisons.
Experiment [8] relates to Wistar rats. Put plainly: Forced swimming test (Porsolt's test) in rats. Format: in vivo.
From the text: as §1, §2
The animals were individually subjected to two experimental trials during which they were forced to swim in a cylinder (40 cm high, 18 cm in diameter) filled with warm water (25° C.) to a height of 15 cm. A video camera was mounted 50 cm above the cylinder. The first (habituation) and second (test) trial lasted 15 and 5 minutes, respectively. There was a 24-h interval between the trials. The total duration of immobility was measured during the second trial by a trained observer located in a separate room.
Weights and time of immobility were analyzed with the aid of a one-way analysis of variance (ANOVA). […]
Experiment [9] concerns Wistar rats. Kind of experiment: Conditioned avoidance response (CAR) in rats.
Method: as §2
Rats trained to avoid the foot shock were placed in the experimental chambers for a 3 min. habituation period followed by 50 CAR trials presented on a 15-s variable interval (VI) schedule. Each trial consisted of a 10 s warning tone and stimulus light (conditioned stimulus) followed by 10 s electric shock (0.5 mA). If during the initial 10 s of the trial an animal crossed through the sliding door, the tone and light were terminated, no shock was applied, and the response was considered as “an avoidance response”. If the animal crossed through the sliding door after a foot shock was initiated, the response was considered as an escape response. […] If a response was made during an intertrial interval, it was punished with 0.5 s shock (0.5 mA). […] On test days, a tested drug was administered i.p. 60 minutes before the start of the test session. Each drug was tested at 3-4 different doses in the same group of eight animals. A 7-day wash-out period was introduced between the subsequent tests. […]
Avoidances, escapes, and “none” responses were analyzed with the aid of a one-way analysis of variance (ANOVA). […]
For experiment [10], the system named is Wistar rats. Put plainly: Elevated plus maze test in rats.
Method: All the experiments were performed by two observers unaware of the treatment applied between 9:00 and 14:00 on separate groups of animals. All animals were used only once and were killed immediately after the experiment.
Floor of the plus-maze was made of infrared transparent material what means that there are no visible sensors. The plus-maze was placed in a darkened room, and the center of the apparatus was illuminated with a 25 W electric bulb hanging 100 cm above. Plus-maze apparatus was connected to PC software by control chassis. Each rat was gently placed in the center of the plus-maze, facing one of the closed arms, immediately after a 5-min adaptation period in a plastic black box (60×60×35 cm). During a 5-minutes test period, automated Motor Monitor System recorded the number of entries into the closed and open arms, the time spent in and the distance (cm) covered by a rat in either type of the arms. After each trial the maze was wiped clean. All compounds were administered to 5-8 rats per treatment group.
The test system of a further experiment is C57BL/6J mice. Put plainly: Tail suspension test in C57BL/6J mice. The class given is in vivo.

T1 sequence (P31389 whole entry): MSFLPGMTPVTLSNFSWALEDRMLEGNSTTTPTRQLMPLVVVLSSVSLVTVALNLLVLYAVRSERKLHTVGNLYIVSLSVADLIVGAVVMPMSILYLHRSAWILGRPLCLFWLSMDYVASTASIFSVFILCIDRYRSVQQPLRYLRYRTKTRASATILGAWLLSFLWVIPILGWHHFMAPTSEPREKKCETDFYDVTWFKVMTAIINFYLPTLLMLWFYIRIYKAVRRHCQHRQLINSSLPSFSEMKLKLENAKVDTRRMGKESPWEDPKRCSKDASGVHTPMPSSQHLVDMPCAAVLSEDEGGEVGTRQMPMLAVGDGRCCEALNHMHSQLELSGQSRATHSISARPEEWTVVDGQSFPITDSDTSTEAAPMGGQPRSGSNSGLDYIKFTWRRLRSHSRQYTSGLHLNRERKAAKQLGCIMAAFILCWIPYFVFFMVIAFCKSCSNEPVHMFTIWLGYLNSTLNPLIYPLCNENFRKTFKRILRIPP
Chain of serotoninergic 5-HT2C receptor (P28335 33-458): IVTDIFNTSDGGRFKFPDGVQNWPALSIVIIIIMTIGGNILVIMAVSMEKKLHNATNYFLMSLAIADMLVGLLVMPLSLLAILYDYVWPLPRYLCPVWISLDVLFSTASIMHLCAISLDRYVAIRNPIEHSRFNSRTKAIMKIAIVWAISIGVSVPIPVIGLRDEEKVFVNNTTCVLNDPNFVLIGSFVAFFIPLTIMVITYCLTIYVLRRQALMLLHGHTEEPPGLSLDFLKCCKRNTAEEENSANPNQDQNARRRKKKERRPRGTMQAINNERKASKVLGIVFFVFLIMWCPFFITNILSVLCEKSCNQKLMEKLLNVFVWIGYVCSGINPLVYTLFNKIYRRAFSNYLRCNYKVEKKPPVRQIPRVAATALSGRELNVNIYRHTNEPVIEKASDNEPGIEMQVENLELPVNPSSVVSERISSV

For `O=S(=O)(NCCCCN1CCN(c2nsc3ccccc23)CC1)c1cc2ccc(Cl)cc2s1` [Compound 241, N-[4-[4-(1,2-Benzothiazol-3-yl)piperazin-1-yl]butyl]-6-chlorobenzothiophene-2-sulphonamide], the “5-HT2C -ag [%]” value in [1] is given as −4%.
On to `Cc1cccc(S(=O)(=O)NCCCCN2CCN(c3nsc4ccccc34)CC2)c1` [Compound 3, N-(4-(4-(1,2-Benzothiazol-3-yl)piperazin-1-yl)butyl)-3-methylbenzenesulphonamide], for which, on histaminergic receptor, the Kb was 148 nM.
With `O=S(=O)(NCCCCN1CCN(c2nsc3ccccc23)CC1)c1cccc2ccccc12` [Compound 1, N-(4-(4-(1,2-Benzothiazol-3-yl)piperazin-1-yl)butyl)naphthalene-1-sulphonamide], at histaminergic receptor, the Kb was 498 nM.
On the same count and under the same terms, in the case of `O=S(=O)(NCCCCN1CCN(c2nsc3ccccc23)CC1)c1ccc2ccccc2c1` [Compound 2, N-(4-(4-(1,2-Benzothiazol-3-yl)piperazin-1-yl)butyl)naphthalene-2-sulphonamide] it was 457 nM.
`Cc1cccc(S(=O)(=O)NCCCN2CCC(c3noc4cc(F)ccc34)CC2)c1` [Compound 22, N-[3-[4-(6-Fluoro-1,2-benzoxazol-3-yl)piperidin-1-yl]propyl]-3-methylbenzenesulphonamide]: the “activity in reversal of deficits in prepulse inhibition in rats” value in the experiment on Wistar rats [2] is “active”. For the same compound, the “MED” value in the experiment on Wistar rats [2] (prepulse inhibition disruption caused by amphetamine administration) was 30 mg/kg; in the experiment on Wistar rats [3] (apomorphine-induced stereotyped behaviour (dopamine-related psychosis model)), 10 mg/kg; in the experiment on Wistar rats [4] it was greater than 30 mg/kg; in the experiment on Wistar rats [5] it was 3 mg/kg; in the experiment with Wistar rats [6] (Vogel test (potential anxiolytic activity)) it was 3 mg/kg; in the experiment on Swiss mice (four-plate test in mice) it was 0.312 mg/kg. The “MED” value in the experiment with Wistar rats [8] (Porsolt forced swim test (potential antidepressant activity)) worked out at 0.3 mg/kg; in the experiment on Wistar rats [9] (active-avoidance response (model of positive symptoms of schizophrenia)), 3 mg/kg; with C57BL/6J mice (tail suspension test in C57BL/6J mice) it was 0.156 mg/kg. Moreover, in the experiment with Wistar rats [3], the “activity in stereotyped behavior induced by apomorphine” value is on record as “active”. The “activity in conflict drinking test (Vogel) in rats” value in the experiment with Wistar rats [6] (anxiolytic model) is “active”. Also, in the experiment on mice, the “activity in MK-801 induced hyperlocomotion” value was “active”. Also, the “MED*” value in the experiment on mice (minimum effective dose, MK-801-induced locomotor hyperactivity, i.p.) is reported as 1.25 mg/kg. The “activity in four plates test in mice” value in the experiment with Swiss mice (mice, anxiolytic model) is given as “active”. Also, the “activity in stereotyped behavior induced by DOI” value with Wistar rats [7] was “active”. The “MED [mg/kg]” value is recorded as ≤ 1 * mg/kg in the experiment with Wistar rats [7] (DOI-induced head twitches (serotonin-related psychosis model)) and ≤ 0.3 * mg/kg in the experiment with Wistar rats [10] (elevated plus-maze (potential anxiolytic activity)). Moreover, the “activity in forced swim test (Porsolt) in rats” value with Wistar rats [8] (antidepressant model) is reported as “active”. In addition, the “activity in active avoidance response” value in the experiment on Wistar rats [9] is “active”. Also, in the experiment with Wistar rats [10] (anxiolytic model), the “activity in elevated plus maze” value is “active”. Besides, the “activity in tail suspension test in mice” value in the experiment with C57BL/6J mice (mice, antidepressant model) was “active”.
In the case of `Cc1c(S(=O)(=O)NCCCCN2CCN(c3nsc4ccccc34)CC2)sc2ccc(F)cc12` [Compound 65, N-[4-[4-(1,2-Benzothiazol-3-yl)piperazin-1-yl]butyl]-5-fluoro-3-methylbenzothiophene-2-sulphonamide], the “5-HT2C -ag [%]” value in [1] was determined as 0%.
